*1 amine or outer side, *2 acyl side, *3 side chain or, on linkers, in order; H or OH if unused. Where a SMILES comes first, the peptide text is derived from it. Side-chain parts run from the residue outwards. The star is where a group is joined. C18 diacid = O=C(O)CCCCCCCCCCCCCCCCC(=O)*; γGlu = O=C(O)[C@H](CCC(=O)[*:2])N[*:1]; Isovaleryl = CC(C)CC(=O)*; Ahx = NCCCCCC(=O)O
What was measured:
[1] = target: T1, Human Neuropeptide Y2 Receptor (Homo sapiens, UniProt P49146); assay: Radioligand binding competition assay (RLB); settings: Table 3, 125I-PYY(1-36) competition; read-out: Ki
T1 construct: purchased CHEMICON HTS066M
T1 sequence (P49146 1-381): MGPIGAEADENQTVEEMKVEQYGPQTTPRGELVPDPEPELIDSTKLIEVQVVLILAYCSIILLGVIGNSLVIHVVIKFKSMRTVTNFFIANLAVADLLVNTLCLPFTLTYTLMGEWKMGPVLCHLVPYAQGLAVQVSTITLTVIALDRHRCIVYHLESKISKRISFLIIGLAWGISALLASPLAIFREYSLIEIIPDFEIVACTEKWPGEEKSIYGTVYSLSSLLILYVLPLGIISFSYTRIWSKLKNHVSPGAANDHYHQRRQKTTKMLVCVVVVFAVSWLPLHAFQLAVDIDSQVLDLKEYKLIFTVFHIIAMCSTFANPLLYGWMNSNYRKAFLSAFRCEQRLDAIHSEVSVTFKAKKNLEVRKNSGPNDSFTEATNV
Method: The filtration RLB assay was carried out in 96-well plates in a final volume of 100 μl per well. Freeze-dried test peptides were dissolved in 100% dimethyl sulfoxide (DMSO) to stock solutions of 1 mM and serial dilutions were performed in assay buffer (50 mM HEPES, 5 mM MgCl2, 1 mM CaCl2, pH 7.4) containing 0.2% ovalbumin. […] Next, 80 μL membranes (HTS066M, ChemiSCREEN™ Human Neuropeptide Y2 Receptor Membrane Preparation, CHEMICON) were added to each well to give a final protein concentration of 0.5 μg/well. The plates were sealed and incubated at room temperature for 2 hours in a plate shaker set at 400 rpm. The incubation was stopped by vacuum filtration onto 0.5% polyethylene amine (PE) presoaked GF/C filters using a 96-well FilterMate™ harvester (Perkin Elmer) followed by four washes with 300 μl/well ice-cold wash buffer (50 mM HEPES, 500 mM NaCl, pH7.4). Filter plates were then dried for 60 min at room temperature and the bottom of the plates was sealed with backing tape UniFilter-96. Finally, 50 μl/well scintillation counter cocktail (Microscint20, Packard) was added and the radioactivity was counted in the Packard TopCount NXT scintillation counter. IC50 values (the half maximal inhibitory concentration of the agonist) were calculated by nonlinear regression analysis of sigmoidal dose-response curves.

Solubility determination = settings: for Sol6: pH 6; for Sol7: pH 7
Method: Peptides (as TFA salts) were weighed out in a filter unit (Mini-UniPrep Syringeless Filter 0.45 μm, Whatman), and 0.1 M sodium diphosphate buffer at pH 6.4 or 7.0 was added to achieve 10 mg/ml final concentration. The peptide was dissolved by shaking the filter unit horizontally at 600 rpm for 2 hours at room temperature. The sample was filtered, to remove any insoluble particles and diluted to 1 mg/ml in 50% acetonitrile. The control was prepared by weighing out the corresponding peptide and dissolving it in 50% acetonitrile to final concentration of 1 mg/ml. Both the control and sample were analysed with reversed phase chromatography. The area under the peak of the sample was compared to the control and the solubility was calculated based on that ratio.
The pH was measured and recorded for each sample.
System: UltiMate 3000 UPLC, ThermoFisher
Mobile phase A: 5% acetonitrile, 95% water, 0.03% trifluoracetic acid.
Mobile phase B: 95% acetonitrile, 5% water, 0.03% trifluoracetic acid.
Gradient: 0-100% mobile phase B (2 mins.)
Column temperature: 50° C.

| SMILES | Ki [1] | Sol6 (Solubility determination) | Sol7 (Solubility determination) |
| --- | --- | --- | --- |
| CC(C)CC(=O)N[C@@H](C)C(=O)N1CCC[C@H]1C(=O)N[C@@H](CCC(=O)O)C(=O)N[C@@H](CCCCNC(=O)CCCCCNC(=O)CC[C@H](NC(=O)CCCCCCCCCCCCCCCCC(=O)O)C(=O)O)C(=O)N1CCC[C@H]1C(=O)N[C@@H](CCC(=O)O)C(=O)N[C@@H](CCC(=O)O)C(=O)N[C@@H](CC(=O)O)C(=O)N[C@@H](C)C(=O)N[C@@H](CCC(=O)O)C(=O)N1CCC[C@H]1C(=O)N[C@@H](CCC(=O)O)C(=O)N[C@@H](CCC(=O)O)C(=O)N[C@@H](CC(C)C)C(=O)N[C@@H](CCC(N)=O)C(=O)N[C@@H](CCCNC(=N)N)C(=O)N[C@@H](Cc1ccc(O)cc1)C(=O)N[C@@H](Cc1ccc(O)cc1)C(=O)N[C@H](C(=O)N[C@@H](CO)C(=O)N[C@@H](CC(C)C)C(=O)N[C@@H](CCCNC(=N)N)C(=O)N[C@@H](Cc1c[nH]cn1)C(=O)N[C@@H](Cc1ccc(O)cc1)C(=O)N[C@@H](Cc1ccc(O)cc1)C(=O)N[C@@H](CCC(N)=O)C(=O)N[C@@H](Cc1c[nH]c2ccccc12)C(=O)N[C@@H](CC(C)C)C(=O)N[C@H](C(=O)N[C@@H](CCCNC(=N)N)C(=O)N[C@@H](CCC(N)=O)C(=O)N[C@@H](CCCNC(=N)N)C(=O)N[C@@H](Cc1ccc(O)cc1)C(N)=O)[C@@H](C)O)[C@@H](C)O [Compound 41, N{alpha-4}-(3-methylbutanoyl)-N{epsilon-7}-(6-[(4S)-4-carboxy-4-(17-carboxyheptadecanamido)butanamido]hexanoyl)[4A,7K,9E,13E,18Q,22T,28Y,30W,31L]-hPYY(4-36)] (Isovaleryl-APEK([Ahx-γGlu-C18 diacid])PEEDAEPEELQRYYTSLRHYYQWLTRQRY-NH2) | 19.8 nM | 9.8 mg/mL | 10.0 mg/mL |
| CC[C@H](C)[C@H](NC(=O)[C@H](CCC(=O)O)NC(=O)[C@H](CCC(=O)O)NC(=O)[C@@H]1CCCN1C(=O)[C@H](CCC(=O)O)NC(=O)[C@H](C)NC(=O)[C@H](C)NC(=O)[C@H](CCC(=O)O)NC(=O)[C@H](CCC(=O)O)NC(=O)[C@@H]1CCCN1C(=O)[C@H](CCCCNC(=O)CCCCCNC(=O)CC[C@H](NC(=O)CCCCCCCCCCCCCCCCC(=O)O)C(=O)O)NC(=O)[C@H](CCC(=O)O)NC(=O)[C@@H]1CCCN1C(=O)[C@H](C)NC(=O)CC(C)C)C(=O)N[C@@H](CCC(N)=O)C(=O)N[C@@H](CCCNC(=N)N)C(=O)N[C@@H](Cc1ccc(O)cc1)C(=O)N[C@@H](Cc1ccc(O)cc1)C(=O)N[C@H](C(=O)N[C@@H](C)C(=O)N[C@@H](CC(C)C)C(=O)N[C@@H](CCCNC(=N)N)C(=O)N[C@@H](Cc1c[nH]cn1)C(=O)N[C@@H](Cc1ccc(O)cc1)C(=O)N[C@@H](Cc1ccc(O)cc1)C(=O)N[C@@H](CC(N)=O)C(=O)N[C@@H](Cc1c[nH]c2ccccc12)C(=O)N[C@@H](CC(C)C)C(=O)N[C@H](C(=O)N[C@@H](CCCNC(=N)N)C(=O)N[C@@H](CCC(N)=O)C(=O)N[C@@H](CCCNC(=N)N)C(=O)N[C@@H](Cc1ccc(O)cc1)C(N)=O)[C@@H](C)O)C(C)C [Compound 156, N{alpha-4}-(3-methylbutanoyl)-N{epsilon-7}-(6-[(4S)-4-carboxy-4-(17-carboxyheptadecanamido)butanamido]hexanoyl)-[4A,7K,9E,11A,13E,17I,18Q,22V,23A,28Y,30W,31L]-hPYY(4-36)] | 4.2 nM | 9.8 mg/mL | 9.6 mg/mL |
| CC(C)CC(=O)N[C@@H](C)C(=O)N1CCC[C@H]1C(=O)N[C@@H](C)C(=O)N[C@@H](CCCCNC(=O)CCCCCNC(=O)CC[C@H](NC(=O)CCCCCCCCCCCCCCCCC(=O)O)C(=O)O)C(=O)N1CCC[C@H]1C(=O)N[C@@H](CCC(=O)O)C(=O)N[C@@H](C)C(=O)N[C@@H](C)C(=O)N[C@@H](C)C(=O)N[C@@H](CCC(=O)O)C(=O)N1CCC[C@H]1C(=O)N[C@@H](CCC(=O)O)C(=O)N[C@@H](CCC(=O)O)C(=O)N[C@@H](CC(C)C)C(=O)N[C@@H](CCC(N)=O)C(=O)N[C@@H](CCCNC(=N)N)C(=O)N[C@@H](Cc1ccc(O)cc1)C(=O)N[C@@H](Cc1ccc(O)cc1)C(=O)N[C@H](C(=O)N[C@@H](CO)C(=O)N[C@@H](CC(C)C)C(=O)N[C@@H](CCCNC(=N)N)C(=O)N[C@@H](Cc1c[nH]cn1)C(=O)N[C@@H](Cc1ccc(O)cc1)C(=O)N[C@@H](Cc1ccc(O)cc1)C(=O)N[C@@H](CC(N)=O)C(=O)N[C@@H](Cc1c[nH]c2ccccc12)C(=O)N[C@@H](CC(C)C)C(=O)N[C@H](C(=O)N[C@@H](CCCNC(=N)N)C(=O)N[C@@H](CCC(N)=O)C(=O)N[C@@H](CCCNC(=N)N)C(=O)N[C@@H](Cc1ccc(O)cc1)C(N)=O)[C@@H](C)O)C(C)C [Compound 43, N{alpha-4}-(3-methylbutanoyl)-N{epsilon-7}-(6-[(4S)-4-carboxy-4-(17-carboxyheptadecanamido)butanamido]hexanoyl)[4A,6A,7K,9E,10A,11A,13E,18Q,22V,28Y,30W,31L]-hPYY(4-36)] (Isovaleryl-APAK([Ahx-γGlu-C18 diacid])PEAAAEPEELQRYYVSLRHYYNWLTRQRY-NH2) | 2.49 nM | 0.0 mg/mL | 0.0 mg/mL |
| CC[C@H](C)[C@H](NC(=O)[C@H](CCC(=O)O)NC(=O)[C@H](CCC(=O)O)NC(=O)[C@@H]1CCCN1C(=O)[C@H](CCC(=O)O)NC(=O)[C@H](C)NC(=O)[C@H](C)NC(=O)[C@H](C)NC(=O)[C@H](CCC(=O)O)NC(=O)[C@@H]1CCCN1C(=O)[C@H](CCCCNC(=O)CCCCCNC(=O)CC[C@H](NC(=O)CCCCCCCCCCCCCCCCC(=O)O)C(=O)O)NC(=O)[C@H](C)NC(=O)[C@@H]1CCCN1C(=O)[C@H](C)NC(=O)CC(C)C)C(=O)N[C@@H](CCC(N)=O)C(=O)N[C@@H](CCCNC(=N)N)C(=O)N[C@@H](Cc1ccc(O)cc1)C(=O)N[C@@H](Cc1ccc(O)cc1)C(=O)N[C@H](C(=O)N[C@@H](CO)C(=O)N[C@@H](CC(C)C)C(=O)N[C@@H](CCCNC(=N)N)C(=O)N[C@@H](Cc1c[nH]cn1)C(=O)N[C@@H](Cc1ccc(O)cc1)C(=O)N[C@@H](Cc1ccc(O)cc1)C(=O)N[C@@H](CC(N)=O)C(=O)N[C@@H](Cc1c[nH]c2ccccc12)C(=O)N[C@@H](CC(C)C)C(=O)N[C@H](C(=O)N[C@@H](CCCNC(=N)N)C(=O)N[C@@H](CCC(N)=O)C(=O)N[C@@H](CCCNC(=N)N)C(=O)N[C@@H](Cc1ccc(O)cc1)C(N)=O)[C@@H](C)O)C(C)C [Compound 111, N{alpha-4}-(3-methylbutanoyl)-N{epsilon-7}-(6-[(4S)-4-carboxy-4-(17-carboxyheptadecanamido)butanamido]hexanoyl)-[4A,6A,7K,9E,10A,11A,13E,17I,18Q,22V,28Y,30W,31L]-hPYY(4-36)] (Isovaleryl-APAK([Ahx-γGlu-C18 diacid])PEAAAEPEEIQRYYVSLRHYYNWLTRQRY-NH2) | 2.14 nM | 0.0 mg/mL | 0.0 mg/mL |

Reference: patent US12391737B2, “Soluble NPY2 receptor agonists” (Boehringer Ingelheim International GmbH, priority 2020, dated 2025)
